Data reported in patent publication US20240158446A1, “CYCLIC COMPOUND HAVING SELECTIVE INHIBITORY ACTION ON KRAS OVER HRAS AND NRAS” (CHUGAI SEIYAKU KABUSHIKI KAISHA, priority 2021, published 2024).
Where a SMILES comes first, the peptide text is derived from it. Bridges are numbered along the chain shown (N, C = ends). [ ]: non-standard residue; d: D form. The star is where a group is joined. hPhe(3-Cl-4-CF3) = N[C@@H](CCc1ccc(C(F)(F)F)c(Cl)c1)C(=O)O; NPrPhe(4-CF3) = CCCN[C@@H](Cc1ccc(C(F)(F)F)cc1)C(=O)O; Pro(4-spirocPr) = O=C(O)[C@@H]1CC2(CC2)CN1; Abu(4,4,4-F3) = N[C@@H](CC(F)(F)F)C(=O)O; Morpholine(3S-CO) = O=C(O)[C@@H]1COCCN1; NMeGly(cPent) = CN[C@H](C(=O)O)C1CCCC1; Pro(4,4-F2) = O=C(O)[C@@H]1CC(F)(F)CN1; Gly(cPent) = N[C@H](C(=O)O)C1CCCC1; Hyp = O=C(O)[C@@H]1C[C@@H](O)CN1; NMeD = CN[C@@H](CC(=O)O)C(=O)O; NMeL = CN[C@@H](CC(C)C)C(=O)O; Morpholide = C1CN(*)CCO1; Ac5c = NC1(C(=O)O)CCCC1; Aze = O=C(O)[C@@H]1CCN1; Abu = CC[C@H](N)C(=O)O; Ac4c = NC1(C(=O)O)CCC1; Sar = CNCC(=O)O

Columns and labels:
[1] = target: GDP-bound NRAS wild-type protein (Homo sapiens, UniProt P01111); test: Binding to NRAS by surface plasmon resonance (SPR), Single Cycle Kinetics; conditions: SPR, GDP-bound NRAS wild-type protein vs GDP-bound KRAS wild-type protein
[2] = target: GDP-bound HRAS wild-type protein (Homo sapiens, UniProt P01112); test: Binding to HRAS by surface plasmon resonance (SPR), Single Cycle Kinetics; conditions: SPR, GDP-bound HRAS wild-type protein vs GDP-bound KRAS wild-type protein
[3] = test system: human lung cancer strain NCI-H441;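 further: cell proliferation inhibition after four days measured by CellTiter-Glo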

Chain of GDP-bound NRAS wild-type protein (P01111 whole entry): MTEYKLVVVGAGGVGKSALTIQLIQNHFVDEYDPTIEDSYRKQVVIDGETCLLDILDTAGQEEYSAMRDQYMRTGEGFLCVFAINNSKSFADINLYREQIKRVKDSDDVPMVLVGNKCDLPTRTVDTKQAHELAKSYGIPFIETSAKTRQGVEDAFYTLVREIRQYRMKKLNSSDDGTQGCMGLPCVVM
Chain of GDP-bound HRAS wild-type protein (P01112 whole entry): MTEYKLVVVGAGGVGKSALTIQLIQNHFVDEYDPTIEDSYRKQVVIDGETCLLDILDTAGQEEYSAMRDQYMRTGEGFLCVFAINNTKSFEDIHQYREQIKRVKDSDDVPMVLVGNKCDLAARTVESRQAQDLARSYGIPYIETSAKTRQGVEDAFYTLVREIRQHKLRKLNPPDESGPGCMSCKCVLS

IC50 [3] [µM] | SMILES | NRAS/KRAS (ratio of KD value for NRAS to KD value for KRAS) [1] | HRAS/KRAS (ratio of KD value for HRAS to KD value for KRAS) [2]
0.296 | CCCN1C(=O)CN(C)C(=O)[C@@H]2CCN2C(=O)[C@H]([C@@H](C)CC)NC(=O)[C@H](CC(C)C)N(C)C(=O)C[C@@H](C(=O)N2CCOCC2)NC(=O)[C@H](C2CCCC2)N(C)C(=O)C2(CCC2)NC(=O)[C@@H]2CCCN2C(=O)[C@H](CCc2ccc(C(F)(F)F)c(Cl)c2)NC(=O)CN(C)C(=O)[C@@H]1Cc1ccc(C(F)(F)F)cc1 [PP0338] ([NMeL]I[Aze][Sar][NPrPhe(4-CF3)][Sar][hPhe(3-Cl-4-CF3)]P[Ac4c][NMeGly(cPent)]D-Morpholide; lactam N-11) | B (a compound having 3 or more and less than 10 is denoted as B) | B (a compound having 3 or more and less than 10 is denoted as B)
0.177 | CCCN1C(=O)CN(C)C(=O)[C@@H]2CCN2C(=O)[C@H]([C@@H](C)CC)NC(=O)[C@H](CC(C)C)N(C)C(=O)C[C@@H](C(=O)N2CCOCC2)NC(=O)[C@H](C2CCCC2)N(C)C(=O)C2(CCC2)NC(=O)[C@@H]2CC(F)(F)CN2C(=O)[C@H](CCc2ccc(C(F)(F)F)c(Cl)c2)NC(=O)CN(C)C(=O)[C@@H]1Cc1ccc(C(F)(F)F)cc1 [PP0340] ([NMeL]I[Aze][Sar][NPrPhe(4-CF3)][Sar][hPhe(3-Cl-4-CF3)][Pro(4,4-F2)][Ac4c][NMeGly(cPent)]D-Morpholide; lactam N-11) | B (a compound having 3 or more and less than 10 is denoted as B) | B (a compound having 3 or more and less than 10 is denoted as B)
0.135 | CCCN1C(=O)CN(C)C(=O)[C@@H]2CCN2C(=O)[C@H]([C@@H](C)CC)NC(=O)[C@H](CC(C)C)N(C)C(=O)C[C@@H](C(=O)N2CCOCC2)NC(=O)[C@H](C2CCCC2)N(C)C(=O)C2(CCCC2)NC(=O)[C@@H]2C[C@@H](OCC)CN2C(=O)[C@H](CCc2ccc(C(F)(F)F)c(Cl)c2)NC(=O)CN(C)C(=O)[C@@H]1Cc1ccc(C(F)(F)F)cc1 [PP0341] ([NMeL]I[Aze][Sar][NPrPhe(4-CF3)][Sar][hPhe(3-Cl-4-CF3)][Hyp](Et)[Ac5c][NMeGly(cPent)]D-Morpholide; lactam N-11) | B (a compound having 3 or more and less than 10 is denoted as B) | B (a compound having 3 or more and less than 10 is denoted as B)
0.114 | CCCN1C(=O)CN(C)C(=O)[C@@H]2CCN2C(=O)[C@H]([C@@H](C)CC)NC(=O)[C@H](CC(C)C)N(C)C(=O)C[C@@H](C(=O)N(C)C)NC(=O)[C@H](C2CCCC2)N(C)C(=O)C2(CCC2)NC(=O)[C@@H]2CC(F)(F)CN2C(=O)[C@H](CCc2ccc(C(F)(F)F)c(Cl)c2)NC(=O)CN(C)C(=O)[C@@H]1Cc1ccc(C(F)(F)F)cc1 [PP0376] ([NMeL]I[Aze][Sar][NPrPhe(4-CF3)][Sar][hPhe(3-Cl-4-CF3)][Pro(4,4-F2)][Ac4c][NMeGly(cPent)]D-NMe2; lactam N-11) | B (a compound having 3 or more and less than 10 is denoted as B) | B (a compound having 3 or more and less than 10 is denoted as B)
0.11 | CCCN1C(=O)CN(C)C(=O)[C@@H]2CCN2C(=O)[C@H]([C@@H](C)CC)NC(=O)[C@H](CC(C)C)N(C)C(=O)C[C@@H](C(=O)N(C)C)NC(=O)[C@H](C2CCCC2)N(C)C(=O)C2(CCC2)NC(=O)[C@@H]2C[C@@H](OCC)CN2C(=O)[C@H](CCc2ccc(C(F)(F)F)c(Cl)c2)NC(=O)CN(C)C(=O)[C@@H]1Cc1ccc(C(F)(F)F)cc1 [PP0378] ([NMeL]I[Aze][Sar][NPrPhe(4-CF3)][Sar][hPhe(3-Cl-4-CF3)][Hyp](Et)[Ac4c][NMeGly(cPent)]D-NMe2; lactam N-11) | B (a compound having 3 or more and less than 10 is denoted as B) | B (a compound having 3 or more and less than 10 is denoted as B)

The next lines start with the compound.

SMILES | IC50 [3] [µM] | NRAS/KRAS (ratio of KD value for NRAS to KD value for KRAS) [1] | HRAS/KRAS (ratio of KD value for HRAS to KD value for KRAS) [2]
CCCN1C(=O)CN(C)C(=O)[C@@H]2CCN2C(=O)[C@H](CC)NC(=O)[C@H](CC(C)C)N(C)C(=O)C[C@@H](C(=O)N2CCOCC2)N(C)C(=O)[C@H](C2CCCC2)N(C)C(=O)C2(CCCC2)NC(=O)[C@@H]2CCCN2C(=O)[C@H](CCc2ccc(C(F)(F)F)c(Cl)c2)NC(=O)CN(C)C(=O)[C@@H]1Cc1ccc(C(F)(F)F)cc1 [PP0303] ([NMeL][Abu][Aze][Sar][NPrPhe(4-CF3)][Sar][hPhe(3-Cl-4-CF3)]P[Ac5c][NMeGly(cPent)][NMeD]-Morpholide; lactam N-11) | 0.349 | B (a compound having 3 or more and less than 10 is denoted as B) | B (a compound having 3 or more and less than 10 is denoted as B)
CCCN1C(=O)CN(C)C(=O)[C@@H]2CCN2C(=O)[C@H](CC(F)(F)F)NC(=O)[C@H](CC(C)C)N(C)C(=O)C[C@@H](C(=O)N2CCOCC2)N(C)C(=O)[C@H](C2CCCC2)N(C)C(=O)C2(CCCC2)NC(=O)[C@@H]2CCCN2C(=O)[C@H](CCc2ccc(C(F)(F)F)c(Cl)c2)NC(=O)CN(C)C(=O)[C@@H]1Cc1ccc(C(F)(F)F)cc1 [PP0304] ([NMeL][Abu(4,4,4-F3)][Aze][Sar][NPrPhe(4-CF3)][Sar][hPhe(3-Cl-4-CF3)]P[Ac5c][NMeGly(cPent)][NMeD]-Morpholide; lactam N-11) | 0.112 | B (a compound having 3 or more and less than 10 is denoted as B) | B (a compound having 3 or more and less than 10 is denoted as B)
CCCN1C(=O)CN(C)C(=O)[C@@H]2CCN2C(=O)[C@H](C2CCCC2)NC(=O)[C@H](CC(C)C)N(C)C(=O)C[C@@H](C(=O)N2CCOCC2)N(C)C(=O)[C@H](C2CCCC2)N(C)C(=O)C2(CCCC2)NC(=O)[C@@H]2CCCN2C(=O)[C@H](CCc2ccc(C(F)(F)F)c(Cl)c2)NC(=O)CN(C)C(=O)[C@@H]1Cc1ccc(C(F)(F)F)cc1 [PP0306] ([NMeL][Gly(cPent)][Aze][Sar][NPrPhe(4-CF3)][Sar][hPhe(3-Cl-4-CF3)]P[Ac5c][NMeGly(cPent)][NMeD]-Morpholide; lactam N-11) | 0.142 | B (a compound having 3 or more and less than 10 is denoted as B) | B (a compound having 3 or more and less than 10 is denoted as B)
CCCN1C(=O)CN(C)C(=O)[C@@H]2CCN2C(=O)[C@H]([C@@H](C)CC)NC(=O)[C@H](CC(C)C)N(C)C(=O)C[C@@H](C(=O)N2CCOCC2)N(C)C(=O)[C@H](C2CCCC2)N(C)C(=O)C2(CCCC2)NC(=O)[C@@H]2CCN2C(=O)[C@H](CCc2ccc(C(F)(F)F)c(Cl)c2)NC(=O)CN(C)C(=O)[C@@H]1Cc1ccc(C(F)(F)F)cc1 [PP0307] ([NMeL]I[Aze][Sar][NPrPhe(4-CF3)][Sar][hPhe(3-Cl-4-CF3)][Aze][Ac5c][NMeGly(cPent)][NMeD]-Morpholide; lactam N-11) | 0.205 | B (a compound having 3 or more and less than 10 is denoted as B) | B (a compound having 3 or more and less than 10 is denoted as B)
CCCN1C(=O)CN(C)C(=O)[C@@H]2CCN2C(=O)[C@H]([C@@H](C)CC)NC(=O)[C@H](CC(C)C)N(C)C(=O)C[C@@H](C(=O)N2CCOCC2)N(C)C(=O)[C@H](C2CCCC2)N(C)C(=O)C2(CCCC2)NC(=O)[C@@H]2CC3(CC3)CN2C(=O)[C@H](CCc2ccc(C(F)(F)F)c(Cl)c2)NC(=O)CN(C)C(=O)[C@@H]1Cc1ccc(C(F)(F)F)cc1 [PP0308] ([NMeL]I[Aze][Sar][NPrPhe(4-CF3)][Sar][hPhe(3-Cl-4-CF3)][Pro(4-spirocPr)][Ac5c][NMeGly(cPent)][NMeD]-Morpholide; lactam N-11) | 0.056 | B (a compound having 3 or more and less than 10 is denoted as B) | B (a compound having 3 or more and less than 10 is denoted as B)
CCCN1C(=O)CN(C)C(=O)[C@@H]2CCN2C(=O)[C@H]([C@@H](C)CC)NC(=O)[C@H](CC(C)C)N(C)C(=O)C[C@@H](C(=O)N2CCOCC2)N(C)C(=O)[C@H](C2CCCC2)N(C)C(=O)C2(CCCC2)NC(=O)[C@@H]2C[C@@H](OC)CN2C(=O)[C@H](CCc2ccc(C(F)(F)F)c(Cl)c2)NC(=O)CN(C)C(=O)[C@@H]1Cc1ccc(C(F)(F)F)cc1 [PP0309] ([NMeL]I[Aze][Sar][NPrPhe(4-CF3)][Sar][hPhe(3-Cl-4-CF3)][Hyp](Me)[Ac5c][NMeGly(cPent)][NMeD]-Morpholide; lactam N-11) | 0.0117 | B (a compound having 3 or more and less than 10 is denoted as B) | B (a compound having 3 or more and less than 10 is denoted as B)
CCCN1C(=O)CN(C)C(=O)[C@@H]2CCN2C(=O)[C@H]([C@@H](C)CC)NC(=O)[C@H](CC(C)C)N(C)C(=O)C[C@@H](C(=O)N2CCOCC2)N(C)C(=O)[C@H](C2CCCC2)N(C)C(=O)C2(CCCC2)NC(=O)[C@@H]2COCCN2C(=O)[C@H](CCc2ccc(C(F)(F)F)c(Cl)c2)NC(=O)CN(C)C(=O)[C@@H]1Cc1ccc(C(F)(F)F)cc1 [PP0313] ([NMeL]I[Aze][Sar][NPrPhe(4-CF3)][Sar][hPhe(3-Cl-4-CF3)][Morpholine(3S-CO)][Ac5c][NMeGly(cPent)][NMeD]-Morpholide; lactam N-11) | 0.0566 | B (a compound having 3 or more and less than 10 is denoted as B) | C (A compound having a KD ratio of 0.1 or more and less than 3 is denoted as C)
